System: AAV IgG
Assay: Serum AAV IgG (ELISA) in AAV-SEAP-injected mice
Type: in vivo, C57BL/6 female mice
Conditions: Example 12; SVP[Rapa] 100 μg; ibrutinib 500 μg
Procedure: At time indicated (days 5, 9, 12, 16, 21, 42, 47, 51, 55, 162,167,174, 195 and 210) mice were bled, serum separated from whole blood and stored at −20±5° C. until analysis. Then IgM antibodies to AAV was measured in ELISA: 96-well plates coated o/n with the AAV, washed and blocked on the following day, then diluted serum samples (1:40) added to the plate and incubated; plates washed, donkey anti-mouse IgM specific-HRP added and after another incubation and wash, the presence of IgM antibodies to AAV detected by adding TMB substrate and measuring at an absorbance of 450 nm with a reference wavelength of 570 nm (the intensity of the signal presented as top optical density, OD, is directly proportional to the quantity of IgM antibody in the sample).
Same serum samples from Example 3 were also tested for AAV IgG measured by ELISA along the same lines as IgM with the exception of goat anti-mouse IgG specific-HRP being used.

C=CC(=O)N1CCC[C@@H](n2nc(-c3ccc(Oc4ccccc4)cc3)c3c(N)ncnc32)C1 [ibrutinib]
animals AAV IgG-converting by d22: 10/10

Source: patent publication US20230141563A1, “METHODS AND COMPOSITIONS FOR ATTENUATING ANTI-VIRAL TRANSFER VECTOR IGM RESPONSES” (Selecta Biosciences, Inc., priority 2021, published 2023)
